Measured values reported in ChEMBL document CHEMBL4706525, “Designing an eEF2K-Targeting PROTAC small molecule that induces apoptosis in MDA-MB-231 cells” (Eur J Med Chem, 2020).
Values belong to the compound of their own block, whether it stands above or below them. Active and inactive are the calls of the source. No cut-off for these calls is given here.

Legend:
[1] = target: Protein cereblon/Eukaryotic elongation factor 2 kinase (Homo sapiens) (UniProt O00418+Q96SW2); test: Protac activity at eEF2K/E3 ubiquitin ligase in human MDA-MB-231 cells assessed as degradation of eEF2K at 200 uM measured after 24 hrs by western blot assay; format: cell-based
MDA-MB-231 [2] = test: Antiproliferative activity against human MDA-MB-231 cells at 100 uM measured by crystal violet staining based colony forming assay; format: functional, cell-based
MDA-MB-231 [3] = test: Induction of apoptosis in human MDA-MB-231 cells at 100 uM measured after 24 hrs by Hoechst staining based fluorescence microscopic method; format: functional, cell-based
MDA-MB-231 [4] = test: Effect on eEF2K expression in human MDA-MB-231 cells at 10 uM measured after 2 hrs by western blot assay; format: functional, cell-based

Sequence of Protein cereblon/Eukaryotic elongation factor 2 kinase (Homo sapiens) (O00418 whole entry, looked up): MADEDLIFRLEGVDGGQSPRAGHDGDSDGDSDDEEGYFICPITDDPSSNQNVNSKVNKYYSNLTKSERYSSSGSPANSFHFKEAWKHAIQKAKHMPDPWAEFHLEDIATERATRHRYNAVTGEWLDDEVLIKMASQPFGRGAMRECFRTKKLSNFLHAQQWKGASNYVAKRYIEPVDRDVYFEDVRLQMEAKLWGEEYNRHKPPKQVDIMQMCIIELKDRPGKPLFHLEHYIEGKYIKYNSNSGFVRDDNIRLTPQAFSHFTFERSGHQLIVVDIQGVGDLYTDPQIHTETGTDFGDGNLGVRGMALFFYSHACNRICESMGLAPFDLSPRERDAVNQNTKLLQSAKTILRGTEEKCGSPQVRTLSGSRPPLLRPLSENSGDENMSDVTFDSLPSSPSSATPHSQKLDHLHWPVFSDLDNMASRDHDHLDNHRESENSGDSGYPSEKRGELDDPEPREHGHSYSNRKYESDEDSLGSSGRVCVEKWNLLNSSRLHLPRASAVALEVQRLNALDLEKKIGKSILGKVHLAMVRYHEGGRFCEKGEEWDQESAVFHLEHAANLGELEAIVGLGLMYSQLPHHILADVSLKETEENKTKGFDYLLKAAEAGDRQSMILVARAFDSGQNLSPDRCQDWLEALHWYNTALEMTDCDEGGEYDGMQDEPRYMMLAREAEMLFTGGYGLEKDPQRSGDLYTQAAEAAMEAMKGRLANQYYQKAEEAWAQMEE
Sequence of Protein cereblon/Eukaryotic elongation factor 2 kinase (Homo sapiens) (Q96SW2 whole entry, looked up): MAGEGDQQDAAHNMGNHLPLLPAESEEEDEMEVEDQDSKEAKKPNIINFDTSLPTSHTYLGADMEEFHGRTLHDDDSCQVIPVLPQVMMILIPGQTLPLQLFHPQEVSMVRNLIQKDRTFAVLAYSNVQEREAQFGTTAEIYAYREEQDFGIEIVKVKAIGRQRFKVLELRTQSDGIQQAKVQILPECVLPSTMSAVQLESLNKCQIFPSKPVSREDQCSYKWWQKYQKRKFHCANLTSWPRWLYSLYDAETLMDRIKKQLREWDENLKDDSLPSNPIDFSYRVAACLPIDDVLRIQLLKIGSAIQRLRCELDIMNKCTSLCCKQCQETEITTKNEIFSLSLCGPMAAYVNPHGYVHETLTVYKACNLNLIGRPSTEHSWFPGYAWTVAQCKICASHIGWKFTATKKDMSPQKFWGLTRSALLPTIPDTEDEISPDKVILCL

SMILES: CCn1c(=O)n(CC(=O)NCCCNc2cccc3c2C(=O)N(C2CCC(=O)NC2=O)C3=O)c(=O)c2cc(C(N)=O)c(N)nc21 (stereo not given)
Activity [1]: 20%

SMILES: NC(=O)c1cc2c(=O)n(CC(=O)NCCOCCNc3cccc4c3C(=O)N(C3CCC(=O)NC3=O)C4=O)c(=O)n(C3CC3)c2cc1N (stereo not given)
Activity [1]: inactive

SMILES: CCn1c(=O)n(CC(=O)NCCCCCCNC(=O)COc2cccc3c2C(=O)N(C2CCC(=O)NC2=O)C3=O)c(=O)c2cc(C(N)=O)c(N)nc21 (stereo not given)
Activity [1]: 35.3%

SMILES: NC(=O)c1cc2c(=O)n(CC(=O)NCCCCCCNc3cccc4c3C(=O)N(C3CCC(=O)NC3=O)C4=O)c(=O)n(C3CC3)c2nc1N (stereo not given)
Activity [1]: inactive

SMILES: CCn1c(=O)n(CC(=O)NCCCCCCNc2cccc3c2C(=O)N(C2CCC(=O)NC2=O)C3=O)c(=O)c2cc(C(N)=O)c(N)nc21 (stereo not given)
Activity [1]: 20%

SMILES: CCn1c(=O)c2cc(C(N)=O)c(N)nc2n(C2CC2)c1=O
Activity (MDA-MB-231 [2]): Active
Activity (MDA-MB-231 [3]): Active

SMILES: O=C1CCC(N2C(=O)c3ccccc3C2=O)C(=O)N1 (stereo not given)
Activity (MDA-MB-231 [4]): inactive

SMILES: NC(=O)c1cc2c(=O)n(CC(=O)NCCCCNc3cccc4c3C(=O)N(C3CCC(=O)NC3=O)C4=O)c(=O)n(C3CC3)c2nc1N (stereo not given)
Activity [1]: inactive

SMILES: NC(=O)c1cc2c(=O)n(CC(=O)NCCCCCNc3cccc4c3C(=O)N(C3CCC(=O)NC3=O)C4=O)c(=O)n(C3CC3)c2cc1N (stereo not given)
Activity [1]: inactive

More lines, now with the values ahead:

Activity [1]: inactive
SMILES: NC(=O)c1cc2c(=O)n(CC(=O)NCCNC(=O)COc3cccc4c3C(=O)N(C3CCC(=O)NC3=O)C4=O)c(=O)n(C3CC3)c2nc1N (stereo not given)

Activity [1]: inactive
SMILES: NC(=O)c1cc2c(=O)n(CC(=O)NCCCNc3cccc4c3C(=O)N(C3CCC(=O)NC3=O)C4=O)c(=O)n(C3CC3)c2nc1N (stereo not given)

Activity [1]: 10%
SMILES: CCn1c(=O)n(CC(=O)NCCNC(=O)COc2cccc3c2C(=O)N(C2CCC(=O)NC2=O)C3=O)c(=O)c2cc(C(N)=O)c(N)nc21 (stereo not given)

Activity [1]: inactive
SMILES: NC(=O)c1cc2c(=O)n(CC(=O)NCCNc3cccc4c3C(=O)N(C3CCC(=O)NC3=O)C4=O)c(=O)n(C3CC3)c2nc1N (stereo not given)

Activity [1]: inactive
SMILES: NC(=O)c1cc2c(=O)n(CC(=O)NCCCCNC(=O)COc3cccc4c3C(=O)N(C3CCC(=O)NC3=O)C4=O)c(=O)n(C3CC3)c2nc1N (stereo not given)
